Data on 1 compound can be found in US20230247991A1, “ANTIMICROBIAL MIXTURE CONTAINING 4-(3-ETHOXY-4-HYDROXYPHENYL)BUTAN-2-ONE AND AN ORGANIC ACID COMPOUND, AND COSMETIC COMPOSITION CONTAINING SAME” (L'OREAL, priority 2017, published 2023).

Holding throughout (assay): MIC / FIC index synergy test, 96-well microplate, optical density at 620 nm
Format in all cases: cell-based

Test [1] deals with Pseudomonas aeruginosa ATCC 9027. The following applies: first concentration giving growth <= 25%. The text has this:
(§1) FIC Index=([…]) with: • MICa with B: minimum concentration of product A in the combination A+B which makes it possible to obtain an inhibitory effect • MICb with A: minimum concentration of product B in the combination A+B which makes it possible to obtain an inhibitory effect. • MICa: minimum inhibitory concentration of product A alone. • MICb: minimum inhibitory concentration of product B alone. […] As regards the combinations tested, MICa with b and MICb with a are the respective concentrations of A and of B in the combinations which make it possible to obtain a microbial growth percentage of less than or equal to 25%. […] The microbial strain Pseudomonas aeruginosa ATCC 9027 and a double-concentration nutritive broth liquid culture medium were used. A 96-well microplate and an incubation temperature of 32.5° C. are used. […] Successive dilutions were made with the 1‰ agar solution. 50 μl of each of the daughter solutions obtained containing compound A or B are added to the microplate wells. 100 μl of Sabouraud liquid nutrient broth inoculated at double concentration with the strain Candida albicans and 50 μl of aqueous 1‰ agar solution are also added thereto. 50 μl of each of the daughter solutions obtained containing compound A and 50 μl of each of the daughter solutions obtained containing compound B are added to the microplate wells. 100 μl of Sabouraud liquid nutrient broth inoculated at double concentration with the strain Candida albicans are also added thereto. […] The test as described above (tests, absorbance controls and growth control) was performed again to test the combination A+B on the following strains Enterococcus faecalis, Staphylococcus aureus, Pseudomonas aeruginosa, Candida albicans.

The subject of test [2] is Candida albicans ATCC 10231. The following applies: compound alone. From the text:
FIC Index=([…]) with: • MICa with B: minimum concentration of product A in the combination A+B which makes it possible to obtain an inhibitory effect • MICb with A: minimum concentration of product B in the combination A+B which makes it possible to obtain an inhibitory effect. • MICa: minimum inhibitory concentration of product A alone. • MICb: minimum inhibitory concentration of product B alone. […] The microbial strain Candida albicans ATCC 10231 and a double-concentration Sabouraud broth liquid culture medium were used. A 96-well microplate and an incubation temperature of 32.5° C. are used. […] Successive dilutions were made with the 1‰ agar solution. 50 μl of each of the daughter solutions obtained containing compound A or B are added to the microplate wells. 100 μl of Sabouraud liquid nutrient broth inoculated at double concentration with the strain Candida albicans and 50 μl of aqueous 1‰ agar solution are also added thereto. 50 μl of each of the daughter solutions obtained containing compound A and 50 μl of each of the daughter solutions obtained containing compound B are added to the microplate wells. 100 μl of Sabouraud liquid nutrient broth inoculated at double concentration with the strain Candida albicans are also added thereto. In the two cases (test and control), the inoculum represents the concentration of the strain Candida albicans present in the final volume of the wells (200 μl) and is between 2 and 6χ 10^5 cfu/ml of Candida albicans.

The test system of test [3] is Enterococcus faecalis ATCC 33186. Particulars: compound alone.
Description: as §1, with “strain Enterococcus faecalis” for “strain Pseudomonas aeruginosa”, “ATCC 33186” for “ATCC 9027”, “double-concentration BHI (Brain Heart Infusion)” for “double-concentration nutritive”

In test [4] the test system is Staphylococcus aureus ATCC 6538. Particulars: compound alone. From the text:
FIC Index=([…]) with: • MICa with B: minimum concentration of product A in the combination A+B which makes it possible to obtain an inhibitory effect • MICb with A: minimum concentration of product B in the combination A+B which makes it possible to obtain an inhibitory effect. • MICa: minimum inhibitory concentration of product A alone. • MICb: minimum inhibitory concentration of product B alone. […] As regards the combinations tested, MICa with b and MICb with a are the respective concentrations of A and of B in the combinations which make it possible to obtain a microbial growth percentage of less than or equal to 25%. When the FIC index value is less than or equal to 1, it is considered that the combination of test compounds has a synergistic effect. The microbial strain Staphylococcus aureus ATCC 6538 and a double-concentration nutritive broth liquid culture medium were used. A 96-well microplate and an incubation temperature of 32.5° C. are used. […] Successive dilutions were made with the 1‰ agar solution. 50 μl of each of the daughter solutions obtained containing compound A or B are added to the microplate wells. 100 μl of Sabouraud liquid nutrient broth inoculated at double concentration with the strain Candida albicans and 50 μl of aqueous 1‰ agar solution are also added thereto. 50 μl of each of the daughter solutions obtained containing compound A and 50 μl of each of the daughter solutions obtained containing compound B are added to the microplate wells. 100 μl of Sabouraud liquid nutrient broth inoculated at double concentration with the strain Candida albicans are also added thereto. […] The test as described above (tests, absorbance controls and growth control) was performed again to test the combination A+B on the following strains Enterococcus faecalis, Staphylococcus aureus, Pseudomonas aeruginosa, Candida albicans.

Test [5] concerns Aspergillus niger ATCC 6275. Particulars: for microbial growth percentage: compound alone.
The mark [6] stands for this setting: first concentration giving growth <= 25%.

For `C/C=C/C=C/C(=O)O` [B2, sorbic acid], the “MIC of compound alone” value in test [1] and in test [5] (setting [6]) was 0.5 weight % throughout. For the same compound, the microbial growth percentage came to 37% in test [2] (0.025 weight %); 24% in test [2] (0.05 weight %); 21% in test [2] (0.1 weight %); 53% in test [3] (0.25 weight %); 78% in test [3] (0.5 weight %); 0% in test [3] (1 weight %). Besides, the microbial growth percentage in test [4] (0.125 weight %) is 52%; in test [4] (0.25 weight %) it was 28%; in test [4] (0.5 weight %), −5%; in test [5] (0.0125 weight %), 98%; in test [5] (0.25 weight %) it was 95%; in test [5] (0.5 weight %), 8%. In addition, the MIC alone in test [2] (setting [6]) stood at 0.1 weight %; in test [4] (setting [6]), 0.5 weight %. Besides, the “% MIC alone” value in test [3] (setting [6]) turned out to be 1 weight %.
